This note sets out measurements from patent US7687511B2, “Substituted dihydropyrimidines, dihydropyrimidones and dihydropyrimidinethiones as calcium channel blockers” (priority 2002, dated 2010).

The melting point is the temperature of the solid-liquid transition.

Each structure is given as a SMILES string.

Consider `CCCCCCCCCCCCCCCc1cccc(OC(C)C)c1C1C(C(=O)OC(C)C)=C(C)NC(=O)N1C(=O)OCC` (stereo not drawn) [PPK-38, 3,6-dihydro-4-methyl-6-[2-isopropoxy-6-pentadecylphenyl]-2-oxo-1,5-(2H)-pyrimidinedicarboxylic acid 1-ethyl 5-isopropyl diester], for which the melting point lay in the range of 88 to 90 °C. Compound `CCCCCCCCCCCCCCCc1cccc(OC)c1C1C(C(=O)OC(C)C)=C(C)NC(=O)N1C(=O)OCC` (stereo not drawn) [PPK-32, 3,6-dihydro-4-methyl-6-[2-methoxy-6-pentadecylphenyl]-2-oxo-1,5-(2H)-pyrimidinedicarboxylic acid 1-ethyl 5-isopropyl diester] displayed a melting point of 100 °C. The compound `CCCCCCCCCCCCCCCc1cccc(OC)c1C1NC(=O)NC(C)=C1C(=O)OC` (stereo not drawn) [PPK-24, 5-methoxycarbonyl-4-(2-methoxy-6-pentadecylphenyl)-6-methyl-3,4-dihydropyrimidin-2(1H)-one] gave a melting point of 101 to 102 °C. In the case of `CCCCCCCCCCCCCCCc1cccc(OC)c1C1C(C(=O)OCC)=C(C)NC(=O)N1C(=O)OCC` (stereo not drawn) [PPK-31, 3,6-dihydro-4-methyl-6-[2-methoxy-6-pentadecylphenyl]-2-oxo-1,5-(2H)-pyrimidinedicarboxylic acid bis(ethyl ester)] it was 109 to 110 °C; in that of `CCCCCCCCCCCCCCCc1cccc(OCC)c1C1C(C(=O)OCC)=C(C)NC(=O)N1C(=O)OCC` (stereo not drawn) [PPK-34, 3,6-dihydro-4-methyl-6-[2-ethoxy-6-pentadecylphenyl]-2-oxo-1,5-(2H)-pyrimidinedicarboxylic acid 1,5-diethyl diester], 112 °C; in that of `CCCCCCCCCCCCCCCc1cccc(OC)c1C1C(C(=O)OC)=C(C)NC(=O)N1C(=O)OCC` (stereo not drawn) [PPK-30, 3,6-dihydro-4-methyl-6-[2-methoxy-6-pentadecylphenyl]-2-oxo-1,5-(2H)-pyrimidinedicarboxylic acid 1-ethyl 5-methyl diester], 121 to 122 °C. Then `CCCCCCCCCCCCCCCc1cccc(OC)c1C1NC(=O)NC(C)=C1C(=O)OCC` (stereo not drawn) [PPK-22, 5-ethoxycarbonyl-4-(2-methoxy-6-pentadecylphenyl)-6-methyl-3,4-dihydropyrimidin-2(1H)-one], with 91 to 93 °C; and `CCCCCCCCCCCCCCCc1cccc(OCC)c1C1NC(=O)NC(C)=C1C(=O)OC` (stereo not drawn) [PPK-23, 5-methoxycarbonyl-4-(2-ethoxy-6-pentadecylphenyl)-6-methyl-3,4-dihydropyrimidin-2(1H)-one], with 127 to 129 °C; and `CCCCCCCCCCCCCCCc1cccc(OC(C)C)c1C1C(C(=O)OCC)=C(C)NC(=O)N1C(=O)OCC` (stereo not drawn) [PPK-37, 3,6-dihydro-4-methyl-6-[2-isopropoxy-6-pentadecylphenyl]-2-oxo-1,5-(2H)-pyrimidinedicarboxylic acid 1,5-diethyl diester], with 90 to 92 °C. `CCCCCCCCCCCCCCCc1cccc(OCC)c1C1NC(=O)NC(C)=C1C(=O)OCC` (stereo not drawn) [PPK-25, 5-ethoxycarbonyl-4-(2-ethoxy-6-pentadecylphenyl)-6-methyl-3,4-dihydropyrimidin-2(1H)-one] returned a melting point of 99 to 100 °C. In the case of `CCCCCCCCCCCCCCCc1cccc(OC(C)C)c1C1C(C(=O)OC)=C(C)NC(=O)N1C(=O)OCC` (stereo not drawn) [PPK-36, 3,6-dihydro-4-methyl-6-[2-isopropoxy-6-pentadecylphenyl]-2-oxo-1,5-(2H)-pyrimidinedicarboxylic acid 1-ethyl 5-methyl diester] it was 120 to 121 °C; in that of `CCCCCCCCCCCCCCCc1cccc(OCC)c1C1C(C(=O)OC)=C(C)NC(=O)N1C(=O)OCC` (stereo not drawn) [PPK-33, 3,6-dihydro-4-methyl-6-[2-ethoxy-6-pentadecylphenyl]-2-oxo-1,5-(2H)-pyrimidinedicarboxylic acid 1-ethyl 5-methyl diester], 103 °C.
